Data as given in patent US12497637B1, “Stabilization of tryptamines by denaturing enzymes, optimizing ionization states, and controlling confounding variables” (Convergent Health Sciences LLC, priority 2025, dated 2025).

Columns and labels:
[1] = Spontaneous dephosphorylation of phosphoryloxytryptamines in 100 millimolar phosphate buffers, 85 degrees Celsius, one hour, HPLC at 220 nanometers
[2] = cited from earlier work
[3] = test system: laccase enzyme; assay: Colorimetric assay with a syringaldazine substrate for residual laccase enzyme activity; assay type: biochemical, Psilocybe cubensis; settings: relative to the water control
From the text: The denaturation of relevant laccase enzymes may be assessed, for example, by performing a colorimetric assay with a laccase enzyme substrate such as syringaldazine or 2,2′-azino-bis(3-ethylbenzothiazoline-6-sulfonate) (ABTS). Syringaldazine comprises an aromatic structure with pendant hydroxyl groups, which is chemically similar to the indole of a hydroxytryptamine, and ABTS comprises a benzothiazoline, which is chemically similar to the indole of tryptamines generally. Colorimetric assays performed with a syringaldazine or ABTS substrate therefore provide suitable methods to assess laccase activity that are relevant to this disclosure.
(§1) 20 milliliters of 6 molar guanidinium chloride in distilled, deionized water and buffered to a pH of 6.0 with 50 millimolar phosphate buffer is added to each of three opaque 50-milliliter polypropylene centrifuge tubes. 20 milliliters of 8 molar urea in distilled, deionized water and buffered to a pH of 6.0 with 50 millimolar phosphate buffer is added to each of three opaque 50-milliliter polypropylene centrifuge tubes. 20 milliliters of 4 molar ammonium sulfate in distilled, deionized water and buffered to a pH of 6.0 with 50 millimolar MES buffer is added to each of three opaque 50-milliliter polypropylene centrifuge tubes. 20 milliliters of 2 percent sodium dodecyl sulfate (w/v) in distilled, deionized water and buffered to a pH of 6.0 with 50 millimolar phosphate buffer is added to each of three opaque 50-milliliter polypropylene centrifuge tubes. 20 milliliters of 1 percent Triton X-100 (v/v) in distilled, deionized water and buffered to a pH of 6.0 with 50 millimolar phosphate buffer is added to each of three opaque 50-milliliter polypropylene centrifuge tubes. 20 milliliters of 2 percent octyl glucoside (w/v) in distilled, deionized water and buffered to a pH of 6.0 with 50 millimolar phosphate buffer is added to each of three opaque 50-milliliter polypropylene centrifuge tubes. 20 milliliters of distilled, deionized water is buffered to a pH of 6.0 with 50 millimolar phosphate buffer and added to each of three opaque 50-milliliter polypropylene centrifuge tubes. Each of the centrifuge tubes is placed on ice.
(§2) The stipes of three freshly-harvested Psilocybe cubensis fruiting bodies are each cut into seven sections of approximately 1 gram each, weighed, and immediately placed into one of the polypropylene tubes such that a section of each stipe is placed in each of the guanidinium, urea, ammonium sulfate, sodium dodecyl sulfate, Triton X-100, and octyl glucoside solutions as well as the water control. Each of the samples is homogenized and then sonicated within the polypropylene tubes. The polypropylene tubes are then loaded onto an orbital shaker in a cold room at 4 degrees Celsius and mixed at 450 revolutions per minute for four hours. After mixing, the samples are placed on ice.
(§3) The samples are centrifuged, and the supernatants are analyzed by HPLC as described in Example 1. The molecular weights of the analytes are determined by electrospray ionization mass spectroscopy (ESI-MS) operating in positive ion mode. The supernatants are also used for a colorimetric assay with a para-nitrophenyl phosphate substrate to identify residual phosphatase enzyme activity and for a colorimetric assay with a syringaldazine substrate to identify any residual laccase enzyme activity.

[4] = test system: phosphatase enzyme; assay: Colorimetric assay with a para-nitrophenyl phosphate substrate for residual phosphatase enzyme activity; assay type: biochemical, Psilocybe cubensis; settings: relative to the water control
From the text: The denaturation of relevant phosphatase enzymes may be assessed, for example, by performing a colorimetric assay with a para-nitrophenyl phosphate substrate. Para-nitrophenyl phosphate comprises a phosphorylated aromatic, which is chemically similar to the phosphorylated indole of a phosphoryloxytryptamine. Colorimetric assays performed with a para-nitrophenyl phosphate substrate therefore provide suitable methods to assess […] that are relevant to this disclosure.
as §1, §2, §3

[5] = cited from earlier work; remark: listed apart in the source
[6] = pH of 2.0 relative to pH of 3.0
[7] = pH of 7.0 relative to pH of 6.0
[8] = pH of 3.0 relative to pH of 2.0
[9] = pH of 6.0 relative to pH of 7.0

NCCc1c[nH]c2cccc(O)c12 [4-HT, 3-(2-aminoethyl)-1H-indol-4-ol]
absorbance detected for the hydroxytryptamine (dephosphorylation product) [1, 6]: greater absorbance | absorbance detected for the hydroxytryptamine (dephosphorylation product) [1, 7]: greater absorbance

C[N+](C)(C)CCc1c[nH]c2cccc(O)c12 [4-hydroxy-TMT, [2-(4-hydroxy-1H-indol-3-yl)ethyl]-trimethylazanium]
absorbance detected for the hydroxytryptamine (dephosphorylation product) [1, 6]: greater absorbance | absorbance detected for the hydroxytryptamine (dephosphorylation product) [1, 7]: greater absorbance

O=C(O)Cc1c[nH]c2ccccc12 [Indole-3-acetic acid, indole-3-acetic acid]
solubility in water [2]: insoluble in water

C[N+](C)(C)CCc1c[nH]c2cccc(OP(=O)(O)O)c12 [aeruginascin, [2-(4-phosphonooxy-1H-indol-3-yl)ethyl]-trimethylazanium]
absorbance detected for the phosphoryloxytryptamine [1, 8]: Greater absorbance | absorbance detected for the phosphoryloxytryptamine [1, 9]: Greater absorbance

N.N.O=S(=O)(O)O [ammonium sulfate]
laccase enzyme activity in the colorimetric assay [3]: significantly less laccase enzyme activity | phosphatase enzyme activity in the colorimetric assay [4]: significantly less phosphatase enzyme activity

CNCCc1c[nH]c2cccc(OP(=O)(O)O)c12 [baeocystin, [2-(4-phosphonooxy-1H-indol-3-yl)ethyl]-methylazanium]
absorbance detected for the phosphoryloxytryptamine [1, 8]: Greater absorbance | absorbance detected for the phosphoryloxytryptamine [1, 9]: Greater absorbance

Cl.N=C(N)N [guanidinium, guanidinium chloride]
laccase enzyme activity in the colorimetric assay [3]: significantly less laccase enzyme activity | phosphatase enzyme activity in the colorimetric assay [4]: significantly less phosphatase enzyme activity

NCCc1c[nH]c2cccc(OP(=O)(O)O)c12 [norbaeocystin, 2-(4-phosphonooxy-1H-indol-3-yl)ethylazanium]
absorbance detected for the phosphoryloxytryptamine [1, 8]: Greater absorbance | absorbance detected for the phosphoryloxytryptamine [1, 9]: Greater absorbance

CNCCc1c[nH]c2cccc(O)c12 [norpsilocin, 3-[2-(methylamino)ethyl]-1H-indol-4-ol]
absorbance detected for the hydroxytryptamine (dephosphorylation product) [1, 6]: greater absorbance | absorbance detected for the hydroxytryptamine (dephosphorylation product) [1, 7]: greater absorbance

CCCCCCCCO[C@@H]1O[C@H](CO)[C@@H](O)[C@H](O)[C@H]1O [octyl glucoside, octyl β-D-glucopyranoside]
laccase enzyme activity in the colorimetric assay [3]: significantly less laccase enzyme activity | phosphatase enzyme activity in the colorimetric assay [4]: significantly less phosphatase enzyme activity

CN(C)CCc1c[nH]c2cccc(O)c12 [psilocin, 3-[2-(dimethylamino)ethyl]-1H-indol-4-ol]
absorbance detected for the hydroxytryptamine (dephosphorylation product) [1, 6]: greater absorbance | absorbance detected for the hydroxytryptamine (dephosphorylation product) [1, 7]: greater absorbance

CN(C)CCc1c[nH]c2cccc(OP(=O)(O)O)c12 [psilocybin]
pKa of the azanium of psilocybin ([5]; conjugate acid of the amino): about 10.4 | pKa of the dihydrogen phosphate of psilocybin (lowest pKa) ([5]; first phosphate pKa): about 1.3

CCCCCCCCCCCCOS(=O)(=O)[O-].[Na+] [sodium dodecyl sulfate]
laccase enzyme activity in the colorimetric assay [3]: significantly less laccase enzyme activity | phosphatase enzyme activity in the colorimetric assay [4]: significantly less phosphatase enzyme activity

OCCc1c[nH]c2ccccc12 [tryptophol]
solubility in water [2]: insoluble in water

NC(N)=O [urea]
laccase enzyme activity in the colorimetric assay [3]: significantly less laccase enzyme activity | phosphatase enzyme activity in the colorimetric assay [4]: significantly less phosphatase enzyme activity

Chitin
solubility in water [2]: insoluble in water

polyethylene glycol 4-(2,4,4-trimethylpent-2-yl)phenyl ether [Triton X-100]
laccase enzyme activity in the colorimetric assay [3]: significantly less laccase enzyme activity | phosphatase enzyme activity in the colorimetric assay [4]: significantly less phosphatase enzyme activity
